The values that follow come from patent US20180078576A1, “SULPHATED XYLANS FOR TREATMENT OR PROPHYLAXIS OF RESPIRATORY DISEASES” (Paradigm Biopharmaceuticals Limited, priority 2007, published 2018).

The test system of assay [1] is guinea pigs sensitized with ovalbumin (OVA) and challenged intranasally with OVA. The experiment in a line: Allergic rhinitis model in the guinea pig (OVA). The class given is in vivo. How it is done:
An allergic rhinitis model in the guinea pig was used. The guinea pigs are sensitized to ovalbumin (OVA) twice (on days 0 and 7) by an intraperitoneal injection of 0.5 ml saline containing 100 mg Al(OH)3 and 2 μg OVA. Three weeks after the last sensitization, animals are anaesthetized and the exposure of the nasal cavity to allergen is performed by dropping OVA solution at 20 mg/ml into bilateral nasal cavities. For the negative control the animals receive sensitization and challenge with saline. The animals are pretreated with either vehicle or drug (pentosan polysulfate or Budesonide) 30 min prior to intranasal instillation of OVA. Vehicle or drugs are administered, 25 μl-50 μl/nostril. A comparison of the pentosan polysulfate with Budesomde, as the reference compound, is included. Animals are terminated and all parameters measured eight hours after the provocation.
The nasal mucosal barrier permeability is assessed by measuring the leakage of protein-rich and non-sieved plasma into the nasal cavities. The amount of extravasated plasma is indicated as nasal lavage levels of total protein or albumin. Nasal lavage fluid is collected by gently rinsing the nasal cavities with phosphate buffered saline. The cells in this fluid are centrifuged and resuspended in phosphate buffered saline and counted using a semiautomated haematology analyzer. The cell composition of the nasal lavage is determined after a cytospin and staining with May Grynwald Giemsa.

In another assay the target is human GM-CSF (Homo sapiens, UniProt P04141). Briefly: GM-CSF dependent TF-1.8 cell proliferation. Particulars: 10 μg/ml and 1 μg/ml, GM-CSF 0.025 ng/ml, FIG. 7. The class given is cell-based. How it is done: TF-1.8 cells were derived from TF-1 cells that respond to human GM-CSF (granulocyte-macrophage colony stimulating factor). TF-1.8 cells retained their responsiveness to GM-CSF. Routinely 2.5×10^4 cells are added to microplate wells that contain either no GM-CSF (negative control) or various dilutions of GM-CSF. The cells are cultured for 48 hours at 37° C. in a humidified atmosphere, after which the luciferase activity is measured by the addition of 50 μl of luciferase substrate buffer (50 mM Tris-HCl, pH 7.8, 15 mM MgSO4, 33.3 mM DTT, 0.1 mM EDTA, 0.5 mM Na-luciferin, 0.5 mM ATP, 0.25 mM lithium Co A and 0.5% v/v Triton X-100). Immediately after the addition of the luciferase buffer the plate is assayed for luciferase activity. Light emissions are detected on a Victor 1420 Multi-label counter (Wallac, Turku, Finland). A titration of GM-CSF established that these cells are dependent upon this growth factor (FIG. 6). When the effect of PPS, or other sulfated polysaccharides is to be measured, the wells also contain various concentrations of these molecules as well as the GM-CSF.
Chain of human GM-CSF (P04141 18-144): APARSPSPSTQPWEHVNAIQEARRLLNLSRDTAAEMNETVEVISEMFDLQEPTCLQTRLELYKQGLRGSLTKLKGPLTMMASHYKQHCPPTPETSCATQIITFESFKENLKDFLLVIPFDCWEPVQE

The test system of assay [2] is Guinea pigs sensitized to OVA and challenged with inhaled OVA. Briefly: Second guinea pig asthma model, parameters 8 hours after OVA inhalation. The class given is in vivo. How it is done: A slightly different animal model was also examined. In this model Guinea pigs were sensitized to OVA twice by an intraperitoneal injection of 0.5 ml saline containing 20 mg Al(OH)3 and 20 μg OVA. The sensitizations are performed on days 0 and 7. Three weeks after the last sensitization, animals were pre-treated with either vehicle or drugs 30 min prior to inhalation of OVA (at 10 mg/ml) for 6 min (allergen challenge). For the negative control, animals received either sensitization and challenge with saline or sensitization with saline and challenge with OVA. Animals were terminated and all parameters measured 8 hours after the provocation. Vehicle or drugs were administered intra-tracheally, 1 ml/kg body weight, 30 min before the intra-tracheal challenge with OVA. The vehicle for compounds was saline. Budesonide as the reference compound was dissolved in the vehicle at concentrations of 1 mg/ml. To measure airway resistance (RL.) and lung compliance (Cdyn) bronchoconstriction was evoked with aerosolized methacholine (3 mg/ml, 10 mg/ml and 30 mg/ml). The difference between baseline readings and that obtained after methacholine were used to calculate Cdyn and RL. Bronchoalveolar lavage (BAL) was performed immediately after the lung function measurements. BAL was analysed for protein content (as a measure of leakage) and leukocyte number, differential cell counts were performed to indicate what subsets of leukocytes were best affected by the drugs.

With Pentosan polysulfate [PPS], the “Leukocyte infiltration into nasal lavage fluid (total white cell numbers)” value in assay [1] (8 hours after intranasal OVA challenge, FIG. 12) is given as “inhibited leukocyte infiltration at all the concentrations tested”. Also, the “Protein content of nasal lavage fluid (plasma exudation)” value in assay [1] (8 hours after intranasal OVA challenge, drug intranasal 30 min before, FIG. 11) was “significantly reduced”. In assay [1] (drugs at 5 mg/kg, FIG. 13), the “Cellular infiltrate in nasal lavage fluid” value is reported as “markedly reduced”. Besides, on human GM-CSF, the “Effect on TF-1.8 cell proliferation obtained with GM-CSF” value is “no effect”. Besides, the “Inhibition of RL (airway resistance)” value is listed as 103% in assay [2] (0.5 mg/kg, FIG. 15A); 94% in assay [2] (2.4 mg/kg, FIG. 15A); 100% in assay [2] (10 mg/kg, FIG. 15A). In addition, the “Total number of infiltrating leukocytes in the bronchoalveolar fluid (in words)” value in assay [2] (0.1, 0.5, 2.5, 10 mg/kg intra-tracheal, FIG. 14B) is “significantly reduced”. In addition, the “Total protein content in the bronchoalveolar fluid” value in assay [2] (0.1, 0.5, 2.5, 10 mg/kg intra-tracheal, all except 0.1 mg/kg significant (P<0.05), dose dependent, FIG. 14A) is recorded as “significantly reduced”. Besides, the “Inhibitory effect on RL (airway resistance)” value in assay [2] (all doses, after 10 mg/ml methacholine, FIG. 15A) is “more than 90%”. Further, in assay [2] (represented as an increase in lung compliance, FIG. 15B), the “Effect on alterations of lung compliance (Cdyn)” value is on record as “Inhibitory effects”.
